Measured values from patent US10925848B2, “Amide derivative” (Daiichi Sankyo Company, Limited, priority 2017, dated 2021).

What was measured:
[1] = biological target: tryptophanase of Bacteroides tetaiotaomicron (Bacteroides thetaiotaomicron, UniProt Q8A7N2); experiment: Tryptophanase enzyme inhibitory activity (LDH-coupled NADH loss); format: biochemical; settings: 10 mM L-tryptophan, 30 min preincubation at 37° C., absorbance at 340 nm
Experimental: Tryptophanase inhibitory activity was evaluated by a method using lactate dehydrogenase (LDH). The reaction time-dependent reduction in NADH conjugated with the enzymatic reaction, with LDH, of pyruvic acid produced through the enzymatic reaction of L-tryptophan as a substrate with tryptophanase, was measured with a spectrophotometer (Phillips-R S et al., Biochemistry, 23, 6228-6234 (1984)). Enzyme inhibitory activity obtained without adding a test compound (by adding DMSO alone) in the presence of tryptophanase was used as a control. As the enzyme, tryptophanase of Bacteroides tetaiotaomicron (Genbank accession number: HC914434.1) was used.
A test compound solution was prepared by dissolving each test compound in DMSO at concentrations (from 30 mM to 30 nM at 10-fold common ratio). LDH, NADH and L-tryptophan were dissolved, using distilled water, respectively to concentrations of 80 units/mL, 10 mM and 50 mM. Bacteroides tryptophanase was prepared to 30 mg/mL. A potassium phosphate buffer was used as the buffer.
A reaction solution A was dispensed at 284.8 μL per well into a 96-well plate, and the test compound solution was added at 3.2 μL per well to obtain a final concentration of 1/100 (reaction solution B). The reaction solution B was incubated at 37° C. for 30 minutes, L-tryptophan was added thereto at 32 μL per well to obtain a final concentration of […] (reaction solution C), and the enzyme reaction was performed at 37° C. over 30 minutes with absorbance at 340 nm measured for monitoring the NADH loss. Based on the NADH loss, the tryptophanase inhibitory activity of the compound was evaluated.

Bacteroides = experiment: Indole production suppressing effect in viable bacterium; format: cell-based; settings: 5 mM L-Tryptophan assay medium, anaerobic, indole in culture supernatant, read-out: Bacteroides Indole Production Inhibitory Activity(IC50)
Experimental: The effect of a tryptophanase inhibitory compound to suppress indole production from a viable bacterium can be evaluated through the following operation.
When E. coli (Eschelicia coli) is used as a strain known to produce indole, the strain is cultured in an LB medium at 37° C. for 12 to 18 hours under anaerobic conditions, and then, suspended in an assay medium (5 mM L-Tryptophan/PBS(+)/25 mM HEPES (pH8)) in such a manner as to obtain O.D. of about 0.3. When bacteroides is used, the strain is cultured in a modified GAM medium at 37° C. for 12 to 18 hours under anaerobic conditions, and then suspended in an assay medium (5 mM L-Tryptophan/PBS(+)/25 mM HEPES (pH8)) in such a manner as to obtain O.D. of about 1.1. The thus obtained viable bacterial suspension prepared to have a final concentration of a compound of 1 μM to 10 mM is dispensed at 200 μL per well into a 96-well plate and cultured at 37° C. for 2 to 4 hours under anaerobic conditions, O.D., an ATP concentration (that can be quantitatively determined by using BacTiter-Glo (Promega Corporation)) and an indole concentration in the culture supernatant (that can be quantitatively determined by utilizing Ehrlich reaction) are measured. The effect of the tryptophanase inhibitory compound to suppress indole production from a viable bacterium can be evaluated depending on the degree of lowering of the indole concentration in the culture supernatant. It can be checked whether or not the effect is derived from a function other than tryptophanase inhibition, such as a bactericidal function or a bacterial growth inhibitory function, depending on lowering of the O.D. or reduction in the ATP concentration or by performing a generally practiced antibacterial activity test (a MIC (minimum growth inhibition concentration) test) using levofloxacin or the like as a positive control.
The activities of inhibiting indole production of the compounds of the respective examples shown in Table 13 were measured by the above-described method using Bacteroides to evaluate the effect of inhibiting indole production.

plasma indoxyl sulfate = experiment: Effect of reducing plasma indoxyl sulfate concentration in mice; format: in vivo; settings: oral gavage, plasma 6 hours after L-tryptophan
Experimental: An effect of a tryptophanase inhibitory compound to reduce plasma indoxyl sulfate concentration in a mouse can be evaluated through the following operation.
After fasting male BALB/c mice overnight, a tryptophanase inhibitory compound dissolved or suspended at a concentration of 0.01 to 10 mg/mL in 0.5% methylcellulose (MC) solution used as a solvent and 0.5% MC solution are orally administered by gavage at a volume of 10 mL/kg respectively to test compound groups and to a solvent control group. 30 minutes after the administration of the test compound or the solvent, L-tryptophan, that is, a substrate of tryptophanase, is orally administered by gavage at a dose of 1 to 3 g/kg. The L-tryptophan is suspended in a 0.5% tragacanth solution. For 12 hours after the administration of the L-tryptophan, blood is collected over time from a tail vein by using a hematocrit tube. The thus obtained blood is centrifuged at 11,000 rpm for 5 minutes to collect plasma, and the indoxyl sulfate concentration in the plasma is measured singly by liquid chromatography (fluorescence detection) or its combination with a mass spectrometer used subsequently. Plasma indoxyl sulfate concentration in the test compound group against the plasma indoxyl sulfate concentration in the solvent control group is calculated as, for example, a ratio of the area under a curve of the indoxyl sulfate concentration, and thus, the efficacy of each compound in vivo can be compared.
The indoxyl sulfate concentrations in plasma obtained by using the compounds of the respective examples shown in Table 14 below were measured by the above-described method to evaluate the plasma indoxyl sulfate suppressing effect.

Chain of tryptophanase of Bacteroides tetaiotaomicron (Q8A7N2 entry or part of it, change not shown): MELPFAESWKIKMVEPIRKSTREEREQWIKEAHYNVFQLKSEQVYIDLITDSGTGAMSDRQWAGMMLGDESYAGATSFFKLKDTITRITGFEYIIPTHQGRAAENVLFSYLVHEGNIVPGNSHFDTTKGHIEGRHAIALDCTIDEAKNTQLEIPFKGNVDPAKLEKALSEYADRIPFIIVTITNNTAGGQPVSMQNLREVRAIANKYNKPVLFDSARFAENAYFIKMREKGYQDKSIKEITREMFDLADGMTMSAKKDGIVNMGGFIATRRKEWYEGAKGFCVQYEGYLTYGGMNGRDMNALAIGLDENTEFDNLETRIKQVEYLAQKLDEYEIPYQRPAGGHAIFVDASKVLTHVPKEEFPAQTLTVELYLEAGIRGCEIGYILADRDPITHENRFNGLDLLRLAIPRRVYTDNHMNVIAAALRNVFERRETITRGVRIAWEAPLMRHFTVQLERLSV

SMILES	IC50 [1]	IC50 (Bacteroides)	Plasma Indoxyl Sulfate Reduction Effect in Male BALB/c Mouse (Indoxyl sulfate reduction effect in plasma 6 hours after administration of L-tryptophan: ED75-, mg/kg) (plasma indoxyl sulfate)
CCOc1cc(N)c(I)cc1C(=O)N[C@@](C)(CC)C(=O)O [Compound of Example 20, (+)-N-(4-Amino-2-ethoxy-5-iodobenzoyl)-L-isovaline]	50 nM		
CCOc1cc(N)c(I)cc1C(=O)N[C@](C)(CC)C(=O)O [Compound of Example 22, (−)-N-(4-Amino-2-ethoxy-5-iodobenzoyl)-D-isovaline]	80 nM		
CCC(NC(=O)c1ccc(N)c(Cl)c1)(C(=O)O)C1CC1 (stereo not shown) [Compound of Example 5, 2-[(4-Amino-3-chlorobenzoyl)amino]-2-cyclopropyl butanoic Acid]	1000 nM		
CC[C@](C)(NC(=O)c1cc(Br)c(N)cc1OC)C(=O)O [Compound of Example 17, (+)-N-(4-Amino-5-bromo-2-methoxybenzoyl)-L-isovaline]	140 nM		
CC(C)Oc1cc(N)c(Cl)cc1C(=O)NC(C)(C)C(=O)O [Compound of Example 9, N-[4-Amino-5-chloro-2-(propan-2-yloxy)benzoyl)-2-methylalanine]	390 nM		
CCC(CC)(NC(=O)c1ccc(N)c(C)c1)C(=O)O [Compound of Example 2, 2-[(4-Amino-3-methylbenzoyl)amino]-2-ethylbutanoic Acid]	7800 nM		
CC[C@](C)(NC(=O)c1cc(I)c(N)cc1OC)C(=O)O [Compound of Example 18, (+)-N-(4-Amino-5-iodo-2-methoxybenzoyl)-L-isovaline]	100 nM		
CC[C@@](C)(NC(=O)c1cc(I)c(N)cc1OC)C(=O)O [Compound of Example 16, (−)-N-(4-Amino-5-iodo-2-methoxybenzoyl)-D-isovaline]	360 nM	< 3000 nM	1 mg/kg
CCOc1cc(N)c(F)cc1C(=O)N[C@@](C)(CC)C(=O)O [Compound of Example 24, (+)-N-(4-Amino-2-ethoxy-5-fluorobenzoyl)-L-isovaline]	130 nM	< 3000 nM	1 mg/kg
CC[C@@](C)(NC(=O)c1cc(Cl)c(N)cc1OC(F)F)C(=O)O [Compound of Example 31, (−)-N-[4-Amino-5-chloro-2-(difluoromethoxy)benzoyl]-D-isovaline]	110 nM		
CCOc1cc(N)c(C#N)cc1C(=O)N[C@](C)(CC)C(=O)O [Compound of Example 29, (−)-N-(4-Amino-5-cyano-2-ethoxybenzoyl)-D-isovaline]	20 nM		
CCCOc1cc(N)c(F)cc1C(=O)NC(C)(C)C(=O)O [Compound of Example 32, N-(4-Amino-5-fluoro-2-propoxybenzoyl)-2-methylalanine]	540 nM		
CCC(NC(=O)c1ccc(N)c(C)c1)(C(=O)O)C1CC1 (stereo not shown) [Compound of Example 4, 2-[(4-Amino-3-methylbenzoyl)amino]-2-cyclopropyl butanoic Acid]	1700 nM		
CC[C@](C)(NC(=O)c1cc(Cl)c(N)cc1OC)C(=O)O [Compound of Example 12, (+)-N-(4-Amino-5-chloro-2-methoxybenzoyl)-L-isovaline]	310 nM		
CCOc1cc(N)c(Cl)cc1C(=O)NC(C)(C)C(=O)O [Compound of Example 8, N-(4-Amino-5-chloro-2-ethoxybenzoyl)-2-methylalanine]	1300 nM		
CCC(CC)(NC(=O)c1cc(C)c(N)c(C)c1)C(=O)O [Compound of Example 3, 2-[(4-Amino-3,5-dimethylbenzoyl)amino]-2-ethylbutanoic Acid]	8000 nM		
CC[C@@](C)(NC(=O)c1cc(Cl)c(N)cc1OC)C(=O)O [Compound of Example 10, (−)-N-(4-Amino-5-chloro-2-methoxybenzoyl)-D-isovaline]	1530 nM	< 3000 nM	1 mg/kg
CC[C@@](C)(NC(=O)c1cc(C)c(N)cc1OC)C(=O)O [Compound of Example 28, N-(4-Amino-2-methoxy-5-methylbenzoyl)-D-isovaline]	3130 nM		
CC[C@@](C)(NC(=O)c1cc(F)c(N)cc1OC)C(=O)O [Compound of Example 30, (−)-N-(4-Amino-5-fluoro-2-methoxybenzoyl)-D-isovaline]	5610 nM		
CCOc1cc(N)c(Cl)cc1C(=O)N[C@](C)(CC)C(=O)O [Compound of Example 11, (−)-N-(4-Amino-5-chloro-2-ethoxybenzoyl)-D-isovaline]	90 nM	< 3000 nM	1 mg/kg
CCC(CC)(NC(=O)c1ccc(N)cc1)C(=O)O [Compound of Example 1, 2-[(4-Aminobenzoyl)amino]-2-ethylbutanoic Acid]	27100 nM		
CCCOc1cc(N)c(Cl)cc1C(=O)N[C@](C)(CC)C(=O)O [Compound of Example 25, (−)-N-(4-Amino-5-chloro-2-propoxybenzoyl)-D-isovaline]	40 nM	< 3000 nM	1 mg/kg
CCC(CC)(NC(=O)c1cc(Cl)c(N)cc1OC)C(=O)O [Compound of Example 6, 2-[(4-Amino-5-chloro-2-methoxybenzoyl)amino]-2-ethylbutanoic Acid]	200 nM	< 3000 nM	1 mg/kg
CCCOc1cc(N)c(Cl)cc1C(=O)NC(C)(C)C(=O)O [Compound of Example 14, N-(4-Amino-5-chloro-2-propoxybenzoyl)-2-methylalanine]	200 nM		
CCOc1cc(N)c(Br)cc1C(=O)N[C@@](C)(CC)C(=O)O [Compound of Example 19, (+)-N-(4-Amino-5-bromo-2-ethoxybenzoyl)-L-isovaline]	60 nM		
CCOc1cc(N)c(Cl)cc1C(=O)N[C@@](C)(CC)C(=O)O [Compound of Example 13, (+)-N-(4-Amino-5-chloro-2-ethoxybenzoyl)-L-isovaline]	80 nM		
CCC(CC)(NC(=O)c1cc(F)c(N)c(Cl)c1)C(=O)O [Compound of Example 7, 2-[(4-Amino-3-chloro-5-fluorobenzoyl)amino]-2-ethylbutanoic Acid]	6900 nM		
CC[C@@](C)(NC(=O)c1cc(C(F)(F)F)c(N)cc1OC)C(=O)O [Compound of Example 26, (−)-N-(4-Amino-2-methoxy-5-(trifluoromethyl)benzoyl)-D-isovaline]	840 nM		
